Results taken from patent publication US5234909A, “Dipeptidic amides derived from glycyl-serine as surfactants or hydrating agents and cosmetic, pharmaceutical or alimentary compositions containing the same” (L'Oreal, priority 1991, dated 1993).
Where a SMILES comes first, the peptide text is derived from it. [ ]: non-standard residue; d: D form. The star is where a group is joined. ξ: configuration not given here. Oleoyl = CCCCCCCC/C=C\CCCCCCCC(=O)*; Lauroyl = CCCCCCCCCCCC(=O)*; ξS = NC(CO)C(=O)O

What was measured:
[1] = test system: human stratum corneum previously delipidated; experiment: Hydrating effect on the skin: reduction of water loss of delipidated stratum corneum (evaporimeter); conditions: 3% solution in 2:1 dichloromethane:methanol applied on delipidated human stratum corneum; measured 3 hours after treatment
Experimental: In this test, the hydrating effect is evaluated by measuring the reduction of water loss of human stratum corneum previously delipidated. The stratum corneum is delipidated for one hour with a 2:1 dichloromethane/methanol mixture.
This test is effected in accordance with a method analogous to that described by J. L. Leveque et coll., J. Soc. Cosmet. Chem., 30, 333-343 (1979).
The following procedures are carried out:
The water flow (g/m^2.H) traversing a sample of stratum corneum placed below a water reservoir is measured. Using an evaporimeter (Servomed, registered mark), the evaporation values before and after treatment are registered, and the eventual reduction of the insensible loss of water is thus determined.
The treatment consists in applying on the sample of stratum corneum […] of a 3% solution in a 2:1 dichloromethane: methanol mixture of the compound being studied. The measurements are carried out 3 hours after this treatment.
On the basis of this test the compound of Example 2 is compared with N-oleoyl-glycyl-glycine (compound B) and with the olvent (2:1 dichloromethane:methanol) alone.

[2] = Foaming power study (foam developed by brush in rotating graduated container); assay type: physicochemical; conditions: 5% aqueous solution (weight/volume), 5 ml with 6 mg natural feminine sebum; for Foam Height (cm) at the end of a time of 60 sec: 60 sec of stirring; for Foam Height (cm) at the end of a time of 120 sec: 120 sec of stirring; for Foam Height (cm) at the end of a time of 180 sec: 180 sec of stirring
Experimental: The test consists in developing the foam using a brush made of natural hog bristles (length=18 mm) displaced in a plexiglass graduated cylindrical container (inside diameter=35 mm). This container is driven in a uniform circular motion which is the reverse of that described by the brush. This permits a good distribution of the foam in the graduated container despite the small amounts developed. (brush speed =100 rpm, container speed =10 rpm). The procedure is carried out using 5 ml of each solution studied to which has been added 6 mg of natural feminine sebum. The foam heights are recorded after one, two and three minutes of stirring.

CCCCCCCC/C=C\CCCCCCCC(=O)NCC(=O)NC(CO)C(=O)O (centres unmarked) [Example 2, N-oleoyl-glycyl-(D,L) Serine] (Oleoyl-Gly-[ξS]-OH)
Reduction of the insensible loss of water [1]: 32% ± 3

CCCCCCCCCCCC(=O)NCC(=O)NCC(=O)[O-].[Na+] [compound A, sodium salt of N-dodecanoyl-glycyl-glycine] (Lauroyl-Gly-Gly-OH)
Foam Height (cm) at the end of a time of 60 sec [2]: 11.25 cm | Foam Height (cm) at the end of a time of 120 sec [2]: 13.75 cm | Foam Height (cm) at the end of a time of 180 sec [2]: 20 cm

CCCCCCCC/C=C\CCCCCCCC(=O)NCC(=O)NCC(=O)O [compound B, N-oleoyl-glycyl-glycine] (Oleoyl-Gly-Gly-OH)
Reduction of the insensible loss of water [1]: 6% ± 3

CCCCCCCCCCCC(=O)NCC(=O)NC(CO)C(=O)[O-].[Na+] (centres unmarked) [Ex. 5, Sodium Salt of N-dodecanoyl-glycyl-(D,L) Serine] (Lauroyl-Gly-[ξS]-OH)
Foam Height (cm) at the end of a time of 60 sec [2]: 12.5 cm | Foam Height (cm) at the end of a time of 120 sec [2]: 21.25 cm | Foam Height (cm) at the end of a time of 180 sec [2]: 28.75 cm
